# Data reported in US7371766B2, “Curcumin analogs with anti-tumor and anti-angiogenic properties” (Emory University, priority 1999, dated 2008).
# Marks after values point to notes of the source that are not given here.
# Legend:
# [1] = system: Vascular Endothelial Growth Factor (VEGF) production by human melanoma cell line RPMI-7951; test: VEGF ELISA, RPMI-7951; settings: RPMI-7951
# [2] = system: KM12; test: cells; settings: Homo sapiens, KM12, 48 h
# [3] = system: NCI-H23; test: cells; settings: Homo sapiens, NCI-H23, 48 h
# [4] = system: HCT-116; test: cells; settings: Homo sapiens, HCT-116, 48 h
# [5] = system: SR; test: cells; settings: Homo sapiens, 48 h
# [6] = system: LOX IMVI; test: cells; settings: Homo sapiens, 48 h, read-out: Median Growth Inhibitory Concentration (GI50)
# [7] = system: HS 578T; test: cells; settings: Homo sapiens, 48 h
# [8] = system: A549; test: cells; settings: Homo sapiens, A549, 48 h
# [9] = system: HCC-2998; test: cells; settings: Homo sapiens, HCC 2998, 48 h
# [10] = system: IGROV1; test: cells; settings: Homo sapiens, IGROV-1, 48 h
# [11] = system: RPMI-8226; test: cells; settings: Homo sapiens, RPMI-8226, 48 h, read-out: Median Growth Inhibitory Concentration (GI50)
# [12] = system: OVCAR-8; test: cells; settings: Homo sapiens, OVCAR-8, 48 h
# [13] = system: UO-31; test: cells; settings: Homo sapiens, UO-31, 48 h
# [14] = system: SW-620; test: cells; settings: Homo sapiens, SW-620, 48 h
# [15] = system: Sixty human tumor cell lines; test: cells; settings: 48 h
# [16] = system: K-562; test: cells; settings: Homo sapiens, K562, 48 h
# [17] = system: OVCAR-3; test: cells; settings: Homo sapiens, OVCAR-3, 48 h
# [18] = system: 786-0; test: cells; settings: Homo sapiens, 786-0, 48 h
# [19] = system: NCI-H460; test: cells; settings: Homo sapiens, NCI-H460, 48 h
# [20] = system: SK-MEL-5; test: cells; settings: Homo sapiens, SK-MEL-5, 48 h, read-out: Median Growth Inhibitory Concentration (GI50)
# [21] = system: OVCAR-4; test: cells; settings: Homo sapiens, OVCAR-4, 48 h
# [22] = system: SF-539; test: cells; settings: Homo sapiens, SF-539, 48 h
# [23] = system: SK-MEL-28; test: cells; settings: Homo sapiens, SK-MEL-28, 48 h
# [24] = system: MOLT-4; test: cells; settings: Homo sapiens, MOLT-4, 48 h
# [25] = system: MDA-N; test: cells; settings: Homo sapiens, 48 h
# [26] = system: CAKI-1; test: cells; settings: Homo sapiens, CAKI-1, 48 h
# [27] = system: MCF-7; test: cells; settings: Homo sapiens, MCF7, 48 h
# [28] = system: SK-OV-3; test: cells; settings: Homo sapiens, SK-OV-3, 48 h
# [29] = system: MDA-MB-435; test: cells; settings: Homo sapiens, MDA-MB-435, 48 h
# [30] = read-out: Median Growth Inhibitory Concentration (GI50)
# [31] = read-out: Median Lethal Concentration (LC50)
compound,measurement,setting,value
"O=C1C(=Cc2ccccc2O)COCC1=Cc1ccccc1O [EF25, 3,5-Bis(2-hyrdoxybenzylidene)tetrahydro4-H-pyran4-one]",VEGF,"[1]; 5 μM, DMSO = 100",21%
same,VEGF,"[1]; 5 μM, DMSO control 4197 (EF-25: 1045)",216* pg/ml
"3,5-Bis(2-hydroxybenzylidene)-sulfone [EF11]",VEGF,"[1]; 20 μM, DMSO = 100",51%
"CC(=O)O.O=C1C(=Cc2ccccc2F)CNCC1=Cc1ccccc1F [EF24, 3,5-Bis-(2-fluorobenzylidene)-piperidin-4-one-acetate]",GI50,[2]; [30],200 nM
same,CC50,[2]; [31],3400 nM
same,GI50,[3]; [30],900 nM
same,CC50,[3]; [31],5300 nM
same,GI50,[4]; [30],200 nM
same,CC50,[4]; [31],1800 nM
same,GI50,[5]; [30],100 nM
same,CC50,[5]; [31],68200 nM
same,GI50,[6],200 nM
same,GI50,[7]; [30],1000 nM
same,CC50,[7]; [31],81400 nM
same,GI50,[8]; [30],1900 nM
same,CC50,[8]; [31],89400 nM
same,GI50,[9]; [30],1100 nM
same,CC50,[9]; [31],5000 nM
same,GI50,[10]; [30],800 nM
same,CC50,[10]; [31],7100 nM
same,GI50,[11],200 nM
same,GI50,[12]; [30],400 nM
same,CC50,[12]; [31],31300 nM
same,GI50,[13]; [30],600 nM
same,CC50,[13]; [31],4500 nM
same,GI50,[14]; [30],200 nM
same,CC50,[14]; [31],4400 nM
same,GI50,"[15]; read-out: Median Growth Inhibitory Concentration (GI50), Mean",700 nM
same,CC50,"[15]; read-out: Median Lethal Concentration (LC50), Mean",13200 nM
same,GI50,[16]; [30],300 nM
same,CC50,[16]; [31],75400 nM
same,GI50,[17]; [30],1100 nM
same,CC50,[17]; [31],16200 nM
same,GI50,[18]; [30],200 nM
same,CC50,[18]; [31],1600 nM
same,GI50,[19]; [30],81000 nM
same,CC50,[19]; [31],50100 nM
same,GI50,[20],1300 nM
same,GI50,[21]; [30],700 nM
same,CC50,[21]; [31],17200 nM
same,GI50,[22]; [30],300 nM
same,CC50,[22]; [31],7600 nM
same,GI50,[23]; [30],2100 nM
same,CC50,[23]; [31],33100 nM
same,GI50,[24]; [30],500 nM
same,CC50,[24]; [31],66200 nM
same,GI50,[25]; [30],500 nM
same,CC50,[25]; [31],5600 nM
same,GI50,[26]; [30],800 nM
same,CC50,[26]; [31],27200 nM
same,GI50,[27]; [30],200 nM
same,CC50,[27]; [31],5000 nM
same,GI50,[28]; [30],1700 nM
same,CC50,[28]; [31],12800 nM
same,GI50,[29]; [30],600 nM
same,CC50,[29]; [31],7400 nM
